Twelve molecules from patent publication US6083964A, “Optical resolution of racemic aminoalkylpyridine anticonvulsants and (+) aminoalkylpyridine enantiomers as highly potent orally effective anticonvulsant drugs and excitatory amino acid antagonists” (K and K Biosciences, Inc., priority 1999, dated 2000) can be followed below.

The nature of data set [1]: Neurological deficit, positional sense test and gait and stance test, rats, p.o. Also on record: species or system rat (Sprague-Dawley). The conditions noted are these: rat, in vivo, po. Here is the method: Neurotoxicity is determined by the rotorod ataxia test in mice and by the positional sense test and gait and stance test in the rat. The following Table 2 presents the results of these anticonvulsant tests with respect to several (+) and (-) AAP enantiomeric compounds derived from optical resolution of racemic AAPs of the present invention. This Table 2 identifies the specific compounds tested by their chemical name and provides the test model, the route of administration, the animal species used, and the anticonvulsant activity and toxicity in terms of ED50 and TD50 values, (the median effective and toxic dose respectively), when intraperitoneally administered to mice, and when orally administered to rats. […] This species will be the subject of the complete anticonvulsant quantification test evaluation as described above, but after oral (gavage) administration of the candidate compound. […] Neurological deficit in rats is examined by the positional sense test and gait and stance test. […] Inability to do so rapidly indicates a neurologic deficit. In the gait and stance test, a neurologic deficit is indicated by a circular or a zigzag gait, ataxia, abnormal spread of the legs, abnormal body posture, tremor, hyperactivity, lack of exploratory behavior, somnolence, stupor, or catalepsy.

The subject of data set [2] is maximal electroshock seizure (MES) in rats. As to the kind of experiment: Maximal electroshock seizure (MES) test, rats, p.o. It is filed as in vivo, rat (Sprague-Dawley). The conditions noted are these: for ED50: Rattus norvegicus, po, MES test, read-out: ED50; for % protection (lowest and highest) during 4 hour period: 4 rats per point. The text has this:
(§1) The (+) AAP enantiomers obtained by optical resolution of racemic AAPs and the resulting highly orally effective anticonvulsant compositions of this invention are useful in the treatment of convulsive disorders. […] A series of (+) AAP enantiomers and (-) AAP enantiomers of this invention has been evaluated for anticonvulsant activity by the intraperitoneal (i.p.) and by the oral (p.o.) route using two standard seizure models in the mouse and in the rat, the maximal electroshock seizure (MES) test and the subcutaneous pentylenetetrazol (Metrazole) seizure threshold (scMet) test. […] The following Table 2 presents the results of these anticonvulsant tests with respect to several (+) and (-) AAP enantiomeric compounds derived from optical resolution of racemic AAPs of the present invention. This Table 2 identifies the specific compounds tested by their chemical name and provides the test model, the route of administration, the animal species used, and the anticonvulsant activity and toxicity in terms of ED50 and TD50 values, (the median effective and toxic dose respectively), when intraperitoneally administered to mice, and when orally administered to rats. The Maximal Electroshock Seizure Test (MES): Maximal electroshock seizures are elicited with a 60 Hz alternating current of 50 mA intensity in mice and about 150 mA intensity in rats (5-7 times that necessary to elicit minimal electroshock seizures), delivered for 0.2 sec via corneal electrodes. A drop of 0.9% saline is instilled in the eye prior to application of the electrodes in order to […]. Abolition of the hind limb tonic extension component of the seizure is defined as protection and results are expressed as number of animals protected/number of animals tested. The Subcutaneous Pentylenetetrazol (Metrazole) Seizure Threshold Test (scMet): A 0.5% solution of 85 mg/kg of pentylenetetrazol is administered subcutaneously in the posterior midline 30 minutes or 4 hours after drug administration to the animal. […] This species will be the subject of the complete anticonvulsant quantification test evaluation as described above, but after oral (gavage) administration of the candidate compound.

For data set [3], the system named is maximal electroshock seizure (MES) in mice. As to the kind of experiment: Maximal electroshock seizure (MES) test, mice, i.p. Format: in vivo, mouse (male Carworth Farms #1). The conditions noted are these: for % protection: 100 mg/kg; for % protection / P.I. (protective index, TD50/ED50): MES; for ED50: MES test.
Excerpt: as §1, with “rats. In mice, i.p.: All compounds are emulsified in 0.5% methylcellulose. The solvent has been tested for anticonvulsant and toxic effects and found to introduce no significant bias into the testing of anticonvulsant activity. The compounds are administered intraperitoneally in a volume of 0.01 ml/gm to male Carworth Farms #1 mice weighing about 20 gm. All compounds are tested at least at three dose levels (30, 100 and 300 mg/kg) at 30 minutes and 4 hours after their administration.” for “rats.”, “Anticonvulsant Quantification in Mice i.p.: The ED50 values are determined in” for “This species will be”, “MES, scMet and rotorod ataxia test. To determine the ED50 values, five logarithmically spaced doses” for “subject”, “the” for “the complete anticonvulsant quantification”, “compound are administered to animals (male Carworth Farms #1 mice) in groups of eight, to cover 0-100% protection, and the dose required to protect 50%” for “evaluation as described above, but after oral (gavage) administration”, “animals (ED50) together with its 95% confidence limits, is determined graphically.” for “candidate compound.”

The subject of data set [4] is neurotoxicity (rotorod ataxia) in mice. As to the kind of experiment: Neurotoxicity, rotorod ataxia test, mice, i.p. Also on record: species or system mouse (male Carworth Farms #1). The conditions noted are these: mouse, in vivo, ip. How it is done:
Neurotoxicity is determined by the rotorod ataxia test in mice and by the positional sense test and gait and stance test in the rat. The following Table 2 presents the results of these anticonvulsant tests with respect to several (+) and (-) AAP enantiomeric compounds derived from optical resolution of racemic AAPs of the present invention. This Table 2 identifies the specific compounds tested by their chemical name and provides the test model, the route of administration, the animal species used, and the anticonvulsant activity and toxicity in terms of ED50 and TD50 values, (the median effective and toxic dose respectively), when intraperitoneally administered to mice, and when orally administered to rats. In mice, i.p.: All compounds are emulsified in 0.5% methylcellulose. The solvent has been tested for anticonvulsant and toxic effects and found to introduce no significant bias into the testing of anticonvulsant activity. The compounds are administered intraperitoneally in a volume of 0.01 ml/gm to male Carworth Farms #1 mice weighing about 20 gm. All compounds are tested at least at three dose levels (30, 100 and 300 mg/kg) at 30 minutes and 4 hours after their administration. Neurotoxicity is evaluated in mice by the rotorod ataxia test. The animal is placed on a wooden rod of 1 and 1/8 diameter rotating at 6 rpm. Normal mice can remain on a rod rotating at this speed indefinitely. […] Anticonvulsant Quantification in Mice i.p.: The ED50 values are determined in the MES, scMet and rotorod ataxia test. To determine the ED50 values, five logarithmically spaced doses of the test compound are administered to animals (male Carworth Farms #1 mice) in groups of eight, to cover 0-100% protection, and the dose required to protect 50% of the animals (ED50) together with its 95% confidence limits, is determined graphically.

[5] abbreviates: rat, p.o. for racemic AAPs, MES.

Where two headings read alike, the source gives them in different places.

As to `CC(Nc1ccc(Cl)c(Cl)c1)c1ccncc1` (racemic) [N-(3,4-Dichlorophenyl)-1-(4-pyridyl)ethylamine, reference compound], in data set [1], the TD50 is more than 500 mg/kg. The “P.I. (protective index, TD50/ED50)” value in data set [2] (setting [5]) was more than 16.8.
For `CCC(Nc1ccc(Cl)c(Cl)c1)c1ccncc1` (racemic) [N-(3,4-Dichlorophenyl)-1-(4-pyridyl)propylamine, reference compound], the “% protection (lowest and highest) during a 4-hour period” value in data set [2] (rat, p.o. for racemic AAPs, 30 mg/kg, 5 time points 0.25-4 hours, MES) is 0-50%.
`CC(Nc1cccc(Cl)c1)c1ccncc1` (racemic) [N-(3-Chlorophenyl)-1-(4-pyridyl)ethylamine, reference compound] displayed a TD50 in data set [1] of more than 500 mg/kg. Besides, the ED50 in data set [2] (p.o. for racemic AAPs) is 34 mg/kg. Further, in data set [2] (setting [5]), the “P.I. (protective index, TD50/ED50)” value is recorded as more than 14.7.
The corresponding values for `CC(Nc1ccc(Br)cc1)c1ccncc1` (racemic) [N-(4-Bromophenyl)-1-(4-pyridyl)ethylamine, reference compound] are more than 500 mg/kg, 20.9 mg/kg and more than 23.9.
In the case of `CC(Nc1ccc(Cl)cc1)c1ccncc1` (racemic) [N-(4-Chlorophenyl)-1-(4-pyridyl)ethylamine, reference compound], in data set [1], the TD50 is more than 470 mg/kg. Further, in data set [2] (p.o. for racemic AAPs), the ED50 came to 22.9 mg/kg. For the same molecule, in data set [2] (setting [5]), the “P.I. (protective index, TD50/ED50)” value is on record as more than 20.5.
The corresponding values for `CCC(Nc1ccc(Cl)cc1)c1ccncc1` (racemic) [N-(4-Chlorophenyl)-1-(4-pyridyl)propylamine, reference compound] are more than 500 mg/kg, 25 mg/kg and more than 20.
Consider `CC(Nc1cccc(Cl)c1)c1ccncc1` (single isomer, unassigned; (+)) [Compound 3, (+) N-(3-Chlorophenyl)-1-(4-pyridyl)ethylamine], for which, in data set [3] (listed as (2) (+) Enantiomer), the “% protection” value is 67%. Besides, the “% protection (lowest and highest) during 4 hour period” value in data set [2] (rat, p.o., 30 mg/kg, 5 time points 0.25-4 hours, MES, listed as (2) (+) Enantiomer, 30 mg/kg) is 25-75%.
As to `CC(Nc1cccc(Cl)c1)c1ccncc1` (single isomer, unassigned; (-)) [Compound 4, (-) N-(3-Chlorophenyl)-1-(4-pyridyl)ethylamine], the TD50 in data set [1] is more than 62.5 mg/kg. Besides, the “% protection” value in data set [3] (listed as (2) (-) Enantiomer) was determined as 33%. Moreover, in data set [2] (p.o.), the ED50 was 29.6 mg/kg. In addition, the “% protection (lowest and highest) during 4 hour period” value in data set [2] (rat, p.o., 30 mg/kg, 5 time points 0.25-4 hours, MES, listed as (2) (-) Enantiomer) was 50-100%. Moreover, the “P.I. (protective index, TD50/ED50)” value in data set [2] (rat, p.o., MES) is on record as more than 2.1.
With `CC(Nc1ccc(Cl)c(Cl)c1)c1ccncc1` (single isomer, unassigned; (-)) [Compound 6, (-) N-(3,4-Dichlorophenyl)-1-(4-pyridyl)ethylamine], the TD50 in data set [4] came out at 279.2 mg/kg. Further, in data set [3] (listed as (3) (-) Enantiomer), the ED50 is reported as 125.4 mg/kg and the “P.I. (protective index, TD50/ED50)” value came to 2.2. Besides, the “% protection (lowest and highest) during 4 hour period” value in data set [2] (rat, p.o., 30 mg/kg, 5 time points 0.25-4 hours, MES, listed as (3) (-) Enantiomer) is 25-75%.
With `CCC(Nc1ccc(Cl)cc1)c1ccncc1` (single isomer, unassigned; (-)) [Compound 8, (-) N-(4-Chlorophenyl)-1-(4-pyridyl)propylamine], the TD50 in data set [4] amounted to 269.4 mg/kg. In data set [3] (listed as (4) (-) Enantiomer), the ED50 is 118.9 mg/kg and the “P.I. (protective index, TD50/ED50)” value is given as 2.3. Moreover, the “% protection (lowest and highest) during 4 hour period” value in data set [2] (rat, p.o., 30 mg/kg, 5 time points 0.25-4 hours, MES, listed as (4) (-) Enantiomer) is given as 25-100%.
As for `CCC(Nc1ccc(Cl)c(Cl)c1)c1ccncc1` (single isomer, unassigned; (-)) [Compound 10, (-) N-(3,4-Dichlorophenyl)-1-(4-pyridyl)propylamine], the TD50 in data set [4] came to 275.2 mg/kg. In addition, in data set [3] (listed as (5) (-) Enantiomer), the ED50 is recorded as 117.3 mg/kg and the “P.I. (protective index, TD50/ED50)” value is 2.3. Besides, the “% protection (lowest and highest) during 4 hour period” value in data set [2] (rat, p.o., 30 mg/kg, 5 time points 0.25-4 hours, MES, listed as (5) (-) Enantiomer) is listed as 25-100%.
As to `CC(Nc1ccc(Br)cc1)c1ccncc1` (single isomer, unassigned; (-)) [Compound 12, (-) N-(4-Bromophenyl)-1-(4-pyridyl)ethylamine], the TD50 in data set [4] was 287.6 mg/kg. In addition, in data set [3] (listed as (6) (-) Enantiomer), the ED50 is 85.5 mg/kg and the “P.I. (protective index, TD50/ED50)” value stood at 3.4. Also, the “% protection (lowest and highest) during 4 hour period” value in data set [2] (rat, p.o., 30 mg/kg, 5 time points 0.25-4 hours, MES) is 25-75%.
